This is an account of results in US10647680B2, “Urea compound, preparation method therefor and medical use thereof” (Ancureall Pharmaceutical (Shanghai) Co., Ltd., priority 2016, dated 2020).

This data set has as its target T1, CYP2C9 (Homo sapiens, UniProt P11712).
T1 construct: human liver microsomes (BD Gentest) (0.5 mg/mL); tissue BD Gentest; host or cells: human liver microsomes
Nature of the data set: P450 enzyme inhibition, CYP2C9. It counts as in vitro ADME. To be noted: human liver microsomes. The method, then: Eight cytochrome p450 enzyme inhibition reactions of human liver microsomes were performed using compound 77 of the present invention as a representative example.
The main reaction systems and processes: in 37° C. water bath, the test compounds (7 concentrations, 0, 0.25, 0.5, 5, 10, 25, and 50 uM; the final methanol concentration was 1% in the system), human liver microsomes (BD Gentest) (0.5 mg/mL) and reducing coenzyme II (Roche 10621706001) (1 mg/mL) and the corresponding cytochrome p450 enzyme probe substrate were co-incubated for 5 to 20 minutes. Among them, (1) the probe substrate for CYP1A2 was Phenacetin ([…]) (Sigma), and the selective inhibitor alpha-naphthoflavone (2 uM) (Sigma) was for parallel detection as positive control, and they were incubated for 20 minutes. (2) The probe substrate for CYP2b6 was Bupropion (40 uM) (Sigma) and the selective inhibitor Ticlopidine (10 uM) (Sigma) was for parallel detection as positive control, and they were incubated for 20 minutes. (3) The probe substrate of CYP2C8 was Amodiaquine (1 uM) (Sigma), and the selective inhibitor Montelukast (10 uM) (Sigma) was for parallel detection as positive control, and they were incubated for 20 minutes. (4) The probe substrate for CYP2C9 was Diclofenac (2.5 uM) (Sigma), and the selective inhibitor Sulphaphenazole (10 uM) (Sigma) was for parallel detection as positive control, and they were incubated for 20 minutes. (5) The probe substrate for CYP2C19 was Mephenytoin (40 uM) (Sigma), and the selective inhibitor Ticlopidine (10 uM) (Sigma) was for parallel detection as positive control, and they were incubated for 20 minutes. (6) The probe substrate for CYP2D6 was Dextromethorphan (5 uM) (Sigma), and the selective inhibitor Quinidine (10 uM) (Sigma) was for parallel detection as positive control, and they were incubated for 20 minutes. (7) The probe substrates for CYP3A4-T and CYP3A4-M were Testosterone (5 uM) (Sigma) and Midazolam (5 uM) (Sigma), respectively, and the selective inhibitor was Ketoconazole (1 uM) (Sigma), they were detected in parallel as positive control, and incubated for 5 minutes. The reaction system was quenched by adding methanol containing the corresponding internal standard. The internal standard compound was Tolbutamide (Sigma). The concentration of the corresponding metabolites was determined by LC/MS/MS. For the data analysis, the decrease in peak area of the metabolite of the sample after addition of compound 77 relative to the peak area of the metabolite of the solvent control sample was used to calculate the IC50 (concentration of the test substance at 50% inhibition). The percentages of peak areas of metabolites of CYP1A2, CYP2B6, CYP2C8, CYP2C9, 15CYP2C19, CYP2D6, CYP3A4-T, and CYP3A4-M probe substrates after addition of different concentrations of compound 77 and selective inhibitors relative to the solvent control peak areas were shown in the Table 7.

T1 sequence (P11712 whole entry): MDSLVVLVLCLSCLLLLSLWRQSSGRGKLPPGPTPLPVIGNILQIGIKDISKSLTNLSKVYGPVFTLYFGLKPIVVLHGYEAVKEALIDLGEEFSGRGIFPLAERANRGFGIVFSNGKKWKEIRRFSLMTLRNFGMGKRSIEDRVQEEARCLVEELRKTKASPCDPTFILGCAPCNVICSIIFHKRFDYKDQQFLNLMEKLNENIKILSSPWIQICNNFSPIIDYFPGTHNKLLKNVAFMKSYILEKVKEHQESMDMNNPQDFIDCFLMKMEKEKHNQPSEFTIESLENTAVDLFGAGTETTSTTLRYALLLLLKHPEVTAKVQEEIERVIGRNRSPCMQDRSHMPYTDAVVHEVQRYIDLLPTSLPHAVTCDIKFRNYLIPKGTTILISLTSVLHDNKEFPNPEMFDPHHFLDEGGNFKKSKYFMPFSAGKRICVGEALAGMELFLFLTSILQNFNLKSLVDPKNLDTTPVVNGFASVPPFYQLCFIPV

Regarding `COCCOc1ccc2c(c1)ncn2-c1ccc(NC(=O)Nc2cc(C(C)(C)C)n[nH]2)cc1` [Compound 77, 1-(5-tert-butyl-2H-pyrazol-3-yl)-3-{4-[5-(2-methoxyl-ethoxyl)-benzimidazol-1-yl]-phenyl}-urea], the “CYP2C9 Remaining %” value (Concentration 0.25 uM) came out at 99.6%; the “CYP2C9 Remaining %” value (Concentration 0.5 uM) was 104.5%; the “CYP2C9 Remaining %” value (Concentration 5 uM) is listed as 99.0%; the “CYP2C9 Remaining %” value (Concentration 10 uM) is recorded as 90.9%; the “CYP2C9 Remaining %” value (Concentration 25 uM) was 72.5%; the “CYP2C9 Remaining %” value (Concentration 50 uM) was 39.9%. The IC50 (read-out: half-inhibitory concentration (IC50) of CYP2C9) came to 41.6 µM.
